Measurements reported in patent US20120029187A1, “HALOALKYLSULFONANILIDE DERIVATIVE” (Nissan Chemical Industries, Ltd., priority 2009, published 2012).

Legend:
Type in all cases: in vivo
redroot pigweed [1] = experiment: Test Example 4: herbicidal effect in foliage treatment; settings: dose 3.2 g/a, three weeks after application
Summary of the method: (§1)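 Weeds and crops sown in sterilized diluvial soil under ~1.5 cm cover and grown in greenhouse at 25 to 30° C. At 14 days, water-diluted emulsifiable concentrate sprayed onto foliage at set doses (g/a); herbicidal effect scored on a rating scale three weeks after application.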

common lambsquater [2] = experiment: as above; settings: dose 3.2 g/a, three weeks after application
Summary of the method: as §1

giant foxtail [3] = experiment: as above; settings: dose 3.2 g/a, three weeks after application
Summary of the method: as §1

water foxtail [4] = experiment: as above; settings: dose 3.2 g/a, three weeks after application
Summary of the method: as §1

beadstraw [5] = experiment: as above; settings: dose 3.2 g/a, three weeks after application
Summary of the method: as §1

velvetleaf [6] = experiment: as above; settings: dose 3.2 g/a, three weeks after application
Summary of the method: as §1

common chickweed [7] = experiment: as above; settings: dose 3.2 g/a, three weeks after application
Summary of the method: as §1

common ragweed [8] = experiment: as above; settings: dose 3.2 g/a, three weeks after application
Summary of the method: as §1

Italian ryegrass [9] = experiment: as above; settings: dose 3.2 g/a, three weeks after application
Summary of the method: as §1

large crabgrass [10] = experiment: as above; settings: dose 3.2 g/a, three weeks after application
Summary of the method: as §1

posumbu knotweed [11] = experiment: as above; settings: dose 3.2 g/a, three weeks after application
Summary of the method: as §1

barnyardgrass [12] = experiment: as above; settings: dose 3.2 g/a, three weeks after application
Summary of the method: as §1

redroot pigweed [13] = experiment: Test Example 3: herbicidal effects in soil treatment; settings: dose 3.2 g/a
Summary of the method: (§2)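 Seeds were sown in sterilized diluvial soil and covered with about 1.5 cm of soil. Compounds, formulated as emulsifiable concentrates and diluted with water, were sprayed evenly over the soil surface at set doses in g/a. Herbicidal effect was scored on a rating scale three weeks later.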

common lambsquater [14] = experiment: as above; settings: dose 3.2 g/a
Summary of the method: as §2

giant foxtail [15] = experiment: as above; settings: dose 3.2 g/a
Summary of the method: as §2

water foxtail [16] = experiment: as above; settings: dose 3.2 g/a
Summary of the method: as §2

beadstraw [17] = experiment: as above; settings: dose 3.2 g/a
Summary of the method: as §2

velvetleaf [18] = experiment: as above; settings: dose 3.2 g/a
Summary of the method: as §2

common chickweed [19] = experiment: as above; settings: dose 3.2 g/a
Summary of the method: as §2

common ragweed [20] = experiment: as above; settings: dose 3.2 g/a
Summary of the method: as §2

Italian ryegrass [21] = experiment: as above; settings: dose 3.2 g/a
Summary of the method: as §2

large crabgrass [22] = experiment: as above; settings: dose 3.2 g/a
Summary of the method: as §2

posumbu knotweed [23] = experiment: as above; settings: dose 3.2 g/a
Summary of the method: as §2

barnyardgrass [24] = experiment: as above; settings: dose 3.2 g/a
Summary of the method: as §2

bulrush [25] = experiment: Test Example 2: herbicidal effects during the vegetation period under submerged conditions; settings: treatment during the vegetation period under submerged conditions; dose 2.52 g/a
Summary of the method: (§3)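 Barnyardgrass, bulrush and ducksalad were co-sown in alluvial soil flooded to 4 cm and grown in a greenhouse at 25 to 30° C. At the 1- or 2-leaf stage, water-diluted emulsifiable concentrates went onto the water surface at set doses (g/a). Herbicidal effect was scored three weeks later on a graded scale.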

ducksalad [26] = experiment: as above; settings: treatment during the vegetation period under submerged conditions; dose 2.52 g/a
Summary of the method: as §3

barnyardgrass [27] = experiment: as above; settings: treatment during the vegetation period under submerged conditions; dose 2.52 g/a
Summary of the method: as §3

transplanted rice = experiment: Test Example 1: preemergence treatment under submerged conditions, effect on crop; settings: dose 2.52 g/a
Summary of the method: (§4)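 Weed seeds and 2.5-leaf rice seedlings shared each flooded cup of alluvial soil. Dosing, expressed as g per are, was by pouring water-diluted emulsifiable concentrate onto the surface on sowing day. Mortality was graded 0 to 5 after three weeks' growth.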

bulrush [28] = experiment: Test Example 1: herbicidal effects in preemergence treatment under submerged conditions; settings: dose 2.52 g/a
Summary of the method: as §4

ducksalad [29] = experiment: as above; settings: dose 2.52 g/a
Summary of the method: as §4

barnyardgrass [30] = experiment: as above; settings: dose 2.52 g/a
Summary of the method: as §4

Row | SMILES | K: redroot pigweed, herbicidal effect (redroot pigweed [1]) | L: common lambsquater, herbicidal effect (common lambsquater [2]) | E: giant foxtail, herbicidal effect (giant foxtail [3]) | G: water foxtail, herbicidal effect (water foxtail [4]) | O: beadstraw, herbicidal effect (beadstraw [5]) | I: velvetleaf, herbicidal effect (velvetleaf [6]) | N: common chickweed, herbicidal effect (common chickweed [7]) | J: common ragweed, herbicidal effect (common ragweed [8]) | H: Italian ryegrass, herbicidal effect (Italian ryegrass [9]) | D: large crabgrass, herbicidal effect (large crabgrass [10]) | M: posumbu knotweed, herbicidal effect (posumbu knotweed [11]) | A: barnyardgrass, herbicidal effect (barnyardgrass [12]) | K: redroot pigweed, herbicidal effect (evaluation scale 0-5) (redroot pigweed [13]) | L: common lambsquater, herbicidal effect (evaluation scale 0-5) (common lambsquater [14]) | E: giant foxtail, herbicidal effect (evaluation scale 0-5) (giant foxtail [15]) | G: water foxtail, herbicidal effect (evaluation scale 0-5) (water foxtail [16]) | O: beadstraw, herbicidal effect (evaluation scale 0-5) (beadstraw [17]) | I: velvetleaf, herbicidal effect (evaluation scale 0-5) (velvetleaf [18]) | N: common chickweed, herbicidal effect (evaluation scale 0-5) (common chickweed [19]) | J: common ragweed, herbicidal effect (evaluation scale 0-5) (common ragweed [20]) | also measured
1 | CCC(=O)N(c1ccccc1CN1COC2(CCC2)CC1=O)S(=O)(=O)C(F)(F)F [II-62] | 3 (mortality of at least 40% and less than 70%) | 4 (mortality of at least 70% and less than 90%) | 5 (mortality of 90% or above (nearly complete death)) | 5 (mortality of 90% or above (nearly complete death)) | 4 (mortality of at least 70% and less than 90%) | 5 (mortality of 90% or above (nearly complete death)) | 4 (mortality of at least 70% and less than 90%) | 4 (mortality of at least 70% and less than 90%) | 4 (mortality of at least 70% and less than 90%) | 5 (mortality of 90% or above (nearly complete death)) | 4 (mortality of at least 70% and less than 90%) | 5 (mortality of 90% or above (nearly complete death)) | 4 (mortality of at least 70% and less than 90%) | 4 (mortality of at least 70% and less than 90%) | 5 (mortality of 90% or above (nearly complete death)) | 5 (mortality of 90% or above (nearly complete death)) | 4 (mortality of at least 70% and less than 90%) | 5 (mortality of 90% or above (nearly complete death)) | 5 (mortality of 90% or above (nearly complete death)) | 4 (mortality of at least 70% and less than 90%) | H: Italian ryegrass, herbicidal effect (evaluation scale 0-5) (Italian ryegrass [21]): 5 (mortality of 90% or above (nearly complete death)); D: large crabgrass, herbicidal effect (evaluation scale 0-5) (large crabgrass [22]): 5 (mortality of 90% or above (nearly complete death)); M: posumbu knotweed, herbicidal effect (evaluation scale 0-5) (posumbu knotweed [23]): 5 (mortality of 90% or above (nearly complete death)); A: barnyardgrass, herbicidal effect (evaluation scale 0-5) (barnyardgrass [24]): 5 (mortality of 90% or above (nearly complete death)); B: bulrush, herbicidal effect (evaluation scale 0-5) (bulrush [25]): 5 (mortality of 90% or above (nearly complete death)); C: ducksalad, herbicidal effect (evaluation scale 0-5) (ducksalad [26]): 5 (mortality of 90% or above (nearly complete death)); A: barnyardgrass, herbicidal effect (evaluation scale 0-5) (barnyardgrass [27]): 5 (mortality of 90% or above (nearly complete death)); a: transplanted rice, effect on crop (evaluation scale 0-5) (transplanted rice): 0 (mortality of less than 5% (almost ineffective)); B: bulrush, herbicidal effect (evaluation scale 0-5) (bulrush [28]): 5 (mortality of 90% or above (nearly complete death)); C: ducksalad, herbicidal effect (evaluation scale 0-5) (ducksalad [29]): 5 (mortality of 90% or above (nearly complete death)); A: barnyardgrass, herbicidal effect (evaluation scale 0-5) (barnyardgrass [30]): 5 (mortality of 90% or above (nearly complete death))
2 | CCOC(=O)N(c1ccccc1CN1COC2(CCC2)CC1=O)S(=O)(=O)C(F)(F)F [II-63] | 2 (mortality of at least 20% and less than 40%) | 3 (mortality of at least 40% and less than 70%) | 4 (mortality of at least 70% and less than 90%) | 5 (mortality of 90% or above (nearly complete death)) | 3 (mortality of at least 40% and less than 70%) | 5 (mortality of 90% or above (nearly complete death)) | 4 (mortality of at least 70% and less than 90%) | 4 (mortality of at least 70% and less than 90%) | 4 (mortality of at least 70% and less than 90%) | 4 (mortality of at least 70% and less than 90%) | 4 (mortality of at least 70% and less than 90%) | 5 (mortality of 90% or above (nearly complete death)) | 4 (mortality of at least 70% and less than 90%) | 3 (mortality of at least 40% and less than 70%) | 5 (mortality of 90% or above (nearly complete death)) | 5 (mortality of 90% or above (nearly complete death)) | 4 (mortality of at least 70% and less than 90%) | 5 (mortality of 90% or above (nearly complete death)) | 5 (mortality of 90% or above (nearly complete death)) | 4 (mortality of at least 70% and less than 90%) | H: Italian ryegrass, herbicidal effect (evaluation scale 0-5) (Italian ryegrass [21]): 4 (mortality of at least 70% and less than 90%); D: large crabgrass, herbicidal effect (evaluation scale 0-5) (large crabgrass [22]): 5 (mortality of 90% or above (nearly complete death)); M: posumbu knotweed, herbicidal effect (evaluation scale 0-5) (posumbu knotweed [23]): 4 (mortality of at least 70% and less than 90%); A: barnyardgrass, herbicidal effect (evaluation scale 0-5) (barnyardgrass [24]): 5 (mortality of 90% or above (nearly complete death)); B: bulrush, herbicidal effect (evaluation scale 0-5) (bulrush [25]): 5 (mortality of 90% or above (nearly complete death)); C: ducksalad, herbicidal effect (evaluation scale 0-5) (ducksalad [26]): 5 (mortality of 90% or above (nearly complete death)); A: barnyardgrass, herbicidal effect (evaluation scale 0-5) (barnyardgrass [27]): 5 (mortality of 90% or above (nearly complete death)); a: transplanted rice, effect on crop (evaluation scale 0-5) (transplanted rice): 1 (mortality of at least 5% and less than 20%); B: bulrush, herbicidal effect (evaluation scale 0-5) (bulrush [28]): 5 (mortality of 90% or above (nearly complete death)); C: ducksalad, herbicidal effect (evaluation scale 0-5) (ducksalad [29]): 5 (mortality of 90% or above (nearly complete death)); A: barnyardgrass, herbicidal effect (evaluation scale 0-5) (barnyardgrass [30]): 5 (mortality of 90% or above (nearly complete death))
